Six compounds from the supplement of paper PMC11061612 can be followed below.

One test relates to KP-N-YN (Neuroblastoma). Briefly: Bliss excess, mean over the matrix (fraction); higher = more synergy. Put shortly:
(§1)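 Bliss excess equals the observed combination effect minus the expected value EA + EB − EA·EB, where EA and EB are the effects of each agent alone. Combination Emax is the second-highest inhibition within the matrix. Inhibition was scaled from CellTiter-Glo 2.0 luminescence, with 0 set by vehicle wells and 1 by blank wells, after 72 hours of two-drug dosing of cells plated in 1536-well plates.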

The next test has as its system NB13 (Neuroblastoma). Described as above. In outline: as §1

With `CN(CCO)CC[C@H](CSc1ccccc1)Nc1ccc(S(=O)(=O)NC(=O)c2ccc(N3CCC([C@@H](O)c4ccccc4-c4ccc(Cl)cc4)CC3)cc2)cc1S(=O)(=O)C(F)(F)F` [AZD4320] + CC(=O)O[C@H]1C(=O)[C@@]2(C)[C@H]([C@H](OC(=O)c3ccccc3)[C@]3(O)C[C@H](OC(=O)[C@H](O)[C@@H](NC(=O)c4ccccc4)c4ccccc4)C(C)=C1C3(C)C)[C@]1(OC(C)=O)CO[C@@H]1C[C@@H]2O [Paclitaxel] (first compound max 1 µM, 7x7, partner max 3 µM), the Bliss excess in the test on KP-N-YN (Neuroblastoma) was 0.0826. Turning to `CN(CCO)CC[C@H](CSc1ccccc1)Nc1ccc(S(=O)(=O)NC(=O)c2ccc(N3CCC([C@@H](O)c4ccccc4-c4ccc(Cl)cc4)CC3)cc2)cc1S(=O)(=O)C(F)(F)F` [AZD4320] + Nc1ccn([C@@H]2O[C@H](CO)[C@@H](O)C2(F)F)c(=O)n1 [Gemcitabine] (first compound max 1 µM, 7x7, partner max 0.3 µM), the Bliss excess with NB13 (Neuroblastoma) came to 0.0074.

In the case of `Cc1cc2ncnn2cc1Nc1ncc2c(n1)n(C1CCOCC1)c(=O)n2C` [AZD7648] + COc1cc([C@@H]2c3cc4c(cc3[C@@H](O[C@@H]3O[C@@H]5CO[C@@H](C)O[C@H]5[C@H](O)[C@H]3O)[C@H]3COC(=O)[C@H]23)OCO4)cc(OC)c1O [Etoposide] (first compound max 10 µM, 7x7, partner max 10 µM), the Bliss excess is 0.0446 in the test on KP-N-YN (Neuroblastoma) and -0.0803 with NB13 (Neuroblastoma).

Take `N#Cc1cnc(Nc2cc(NC[C@H]3CNCCO3)c(C(F)(F)F)cn2)cn1` [SRA737] + C=CCn1c(=O)c2cnc(Nc3ccc(N4CCN(C)CC4)cc3)nc2n1-c1cccc(C(C)(C)O)n1 [AZD1775] (first compound max 10 µM, partner max 1 µM): the figures for the Bliss excess in the test on KP-N-YN (Neuroblastoma) and with NB13 (Neuroblastoma) were 0.0762 and 0.0322, respectively. In the case of `N#Cc1cnc(Nc2cc(NC[C@H]3CNCCO3)c(C(F)(F)F)cn2)cn1` [SRA737] + CCc1c2c(nc3ccc(O)cc13)-c1cc3c(c(=O)n1C2)COC(=O)[C@]3(O)CC [SN-38] (first compound max 10 µM, 7x7, partner max 0.3 µM), the Bliss excess in the test with KP-N-YN (Neuroblastoma) is -0.0189; with NB13 (Neuroblastoma), 0.129. As to `N#Cc1cnc(Nc2cc(NC[C@H]3CNCCO3)c(C(F)(F)F)cn2)cn1` [SRA737] + O=c1[nH]cc(F)c(=O)[nH]1 [5-Fluorouracil] (first compound max 10 µM, 7x7, partner max 20 µM), the Bliss excess was -0.0468 in the test on KP-N-YN (Neuroblastoma) and -0.0699 with NB13 (Neuroblastoma).
